Data reported in US20090312265A1, “NOVEL ANTIMICROBIAL PEPTIDES AND USE THEREOF” (priority 2006, published 2009).
No end group written: not given here.

Tests used:
[1] = test system: Erythrocytes; assay type: cell-based; conditions: 1 h
Protocol: EDTA-blood was centrifuged at 800 g for 10 min, whereafter plasma and buffy coat were removed. The erythrocytes were washed three times and resuspended in 5% PBS, pH 7.4. The cells were then incubated with end-over-end rotation for 1 h at 37° C. in the presence of peptides (3-60 μM). 2% Triton X-100 (Sigma-Aldrich) served as positive control. The samples were then centrifuged at 800 g for 10 min. The absorbance of hemoglobin release was measured at λ 540 nm and is in the plot expressed as % of TritonX-100 induced hemolysis (FIG. 5 and table 6). The peptides in table 3A (SEQ ID No. 12-18) were evaluated as described above.

[2] = Liposome leakage assay (carboxyfluorescein release), PA liposomes; conditions: scale: Triton X100 = 100% release; for PA + NaCl (CF release, liposome leakage): 10 mM Tris pH 7.4 with additional 150 mM NaCl; for PA − NaCl (CF release, liposome leakage): 10 mM Tris pH 7.4 without NaCl
Protocol: (§1) Dry lipid films were prepared by dissolving either dioleoylphosphatidylcholine (Avanti Polar Lipids, Alabaster, Ala.) (60 mol %) and cholesterol (Sigma, St Louis, Mo.) (40 mol %), or dioleoylphosphatidylcholine (30 mol %), dioleoylphosphatidic acid (Avanti Polar Lipids, Alabaster, Ala.) (30 mol %) and cholesterol (40 mol %) in chloroform, and then removing the solvent by evaporation under vacuum overnight. Subsequently, buffer solution containing 10 mM Tris, pH 7.4, either with or without additional 150 mM NaCl, was added together with 0.1 M carboxyfluorescein (CF) (Sigma, St Louis, Mo.). After hydration, the lipid mixture was subjected to eight freeze-thaw cycles consisting of freezing in liquid nitrogen and heating to 60° C. Unilamellar liposomes with a diameter of about 130 nm (as found with cryo-TEM; results not shown) were generated by multiple extrusions through polycarbonate filters (pore size 100 nm) mounted in a LipoFast miniextruder (Avestin, Ottawa, Canada). Untrapped carboxyfluorescein was then removed by filtration through two subsequent Sephadex G-50 columns with the relevant Tris buffer as eluent. Both extrusion and filtration was performed at 22° C. In the liposome leakage assay, the well lmown self-quenching of CF was used. Thus, at 100 mM CF is self-quenched, and the recorded fluorescence intensity from liposomes with entrapped CF is low. […] The CF release was determined by monitoring the emitted fluorescence at 520 nm from a liposome dispersion (10 mM lipid in 10 mM Tris pH 7.4). An absolute leakage scale is obtained by disrupting the liposomes at the end of the experiment through addition of 0.8 mM Triton X100 (Sigma, St Louis, Mo.), thereby causing 100% release and dequenching of CF. A SPEX-fluorolog 1650 0.22-m double spectrometer (SPEX Industries, Edison, N.J.) was used for the liposome leakage assay (see Table 4).

[3] = test system: bacteria; assay: Antibacterial activity in vitro; assay type: cell-based
Protocol: Radial diffusion assays (RDA) were performed essentially as described earlier (Lehrer, R. I., Rosenman, M., Harwig, S. S., Jackson, R. & Eisenhauer, P. (1991) Ultrasensitive assays for endogenous antimicrobial polypeptides, J Immunol Methods. 137, 167-73.).
Briefly, bacteria (E. coli, P. aeruginosa, S. aureus, B. subtilis) or fungi (C. albicans) were grown to mid-logarithmic phase in 10 ml of full-strength (3% w/v) trypticase soy broth (TSB) (Becton-Dickinson, Cockeysville, Md.). The microorganisms were washed once with 10 mM Tris, pH 7.4. 4×10^6 bacterial cfu or 1×10^5 fungal cfu was added to 5 ml of the underlay agarose gel, consisting of 0.03% (w/v) TSB, 1% (w/v) low-electroendoosmosistype (Low-EEO) agarose (Sigma, St Louise Mo.) and a final concentration of 0.02% (v/v) Tween 20 (Sigma). The underlay was poured into a Ø 85 mm petri dish. After agarose solidified, 4 mm-diameter wells were punched and 6 μl of test sample was added to each well. Plates were incubated at 37° C. for 3 hours to allow diffusion of the peptides. The underlay gel was then covered with 5 ml of molten overlay (6% TSB and 1% Low-EEO agarose in dH2O). Antimicrobial activity of a peptide is visualized as a clear zone around each well after 18-24 hours of incubation at 37° C. for bacteria and 28° C. for Candida albicans.

[4] = CD-spectroscopy, helix content; assay type: physicochemical; conditions: 10 mM Tris, 10 μM peptide, 37° C.; for Helix content, PA: pH 7.4, PA liposome dispersion (100 μM lipid); for Helix content, PC: pH 7.4, PC liposome dispersion (100 μM lipid); for Helix content, Buffer: pH 7.4, buffer
Protocol: The CD spectra of the peptides in solution were measured on a Jasco J-810 Spectropolarimeter (Jasco, U.K.). The measurements were performed at 37° C. in a 10 mm quartz cuvet under stirring and the peptide concentration was 10 μM. The effect of on peptide secondary structure of liposomes at a lipid concentration of 100 μM was monitired in the range 200-250 nm. The only peptide conformations observed under the conditions investigated were α-helix and random coil. The fraction of the peptide in α-helical conformation, Xα, is calculated from
where A is the recorded CD signal at 225 nm, and Aα and Ac are the CD signal at 225 nm for a reference peptide in 100% α-helix and 100% random coil conformation, respectively. 100% α-helix and 100% random coil references were obtained from 0.133 mM (monomer concentration) poly-L-lysine in 0.1 M NaOH and 0.1 M HCl, respectively. To account for the instrumental differences between measurements the background value (detected at 250 nm, where no peptide signal is present) was subtracted. Signals from the bulk solution were also corrected for (see Table 5).

[5] = Liposome leakage assay (carboxyfluorescein release), PC liposomes; conditions: scale: Triton X100 = 100% release; for PC + NaCl (CF release, liposome leakage): 10 mM Tris pH 7.4 with additional 150 mM NaCl; for PC − NaCl (CF release, liposome leakage): 10 mM Tris pH 7.4 without NaCl
Protocol: as §1

[6] = test system: Gram-positive and Gram-negative bacterial, fungal, and viral pathogens; conditions: Niyonsaba and Ogawa 2005; cited from earlier work

Sequence | Erythrocytes Hemolysis (%) Mean [1] [%] | PA + NaCl (CF release, liposome leakage) [2] | PA − NaCl (CF release, liposome leakage) [2] | antibacterial activity in vitro [3] | Helix content, PA [4] [%] | Helix content, PC [4] [%] | Helix content, Buffer [4] [%] | PC + NaCl (CF release, liposome leakage) [5] | PC − NaCl (CF release, liposome leakage) [5] | antimicrobial activity spectrum [6]
KRKKKGKGWGKKRLPCLRKY [KRK20: E] | 2.73 |  |  |  |  |  |  |  |  | 
KRKKKGKGLGKKRDPCLRKY [KRK20: A] | 2.25 |  |  |  |  |  |  |  |  | 
RVRRPPKGKHRKFHTHDKTA (RVRRPPKGKHRKFKHTHDKTA; listed as Homo sapiens) [RVR21] |  | 8 ± 2 | 18 ± 8 | show antibacterial activity in vitro | 6 ± 3 | 11 ± 4 | 8 ± 4 | 6 ± 1 | 55 ± 2 | 
QRAKTPQTRVTIRTVRVRRPP (listed as Homo sapiens) [QRA21] |  |  | 0 ± 1 | show antibacterial activity in vitro |  |  |  |  | 10 ± 1 | 
GKRKKKGKGLGKKRDPCLRKYK (listed as Homo sapiens) [GKR22] |  | 2 ± 1 | 42 ± 7 | shows antibacterial activity in vitro | 10 ± 3 | 5 ± 2 | 8 ± 2 | 4 ± 1 | 72 ± 8 | 
KRKKKGKGWGKKRWPCLRKY [KRK20: F] | 3.14 |  |  |  |  |  |  |  |  | 
LNQKGIPVRGKKTKKEQKTAH (listed as Homo sapiens) [LNQ21, FGF7_HUMAN aa 167-187] |  |  | 10 ± 1 |  |  |  |  |  | 2 ± 1 | 
LKRTGQYKLGSKTGPGQKAIL (listed as Homo sapiens) [LKR21, FGF2_HUMAN aa 127-147] |  |  | 3 ± 1 |  |  |  |  |  | 2 ± 1 | 
KRKKKGKGLGKKRLPCLRKY [KRK20: C] | 2.31 |  |  |  |  |  |  |  |  | 
LKKNGSCKRGPRTHYGQKAIL (human growth factor) [LKK21, FGF1_HUMAN aa 126-146] |  |  | 4 ± 2 | shows antibacterial activity in vitro | 10 ± 4 | 13 ± 5 | 11 ± 2 | 6 ± 2 | 26 ± 3 | 
LNGKGAPRRGQKTRRKNTSAH (listed as Homo sapiens) [LNG21] |  |  | 9 ± 5 |  |  |  |  |  | 12 ± 2 | 
GRPRESGKKRKRKRKLKPT (listed as Homo sapiens) [GRP19] |  | 5 ± 1 | 20 ± 2 | show antibacterial activity in vitro | 8 ± 3 | 8 ± 4 | 9 ± 2 | 4 ± 1 | 30 ± 12 | 
LLGDFFRKSKEKIGKEFKRIVQRIKDFLRNLVPRTES [LL-37, reference compound] |  | 57 ± 6 | 100 ± 10 |  | 100 ± 10 | 100 ± 10 | 60 ± 10 | 73 ± 7 | 100 ± 10 | broad-spectrum antimicrobial activity
KRKRKGKGLGKKKDPCLRKF [KRK20: B] | 2.26 |  |  |  |  |  |  |  |  | 
KRKKKGKGLGKKRWPCLRKY [KRK20: G] | 2.29 |  |  |  |  |  |  |  |  | 
LRPVQVRKIEIVRRKPIFKKATVT (LRPVQVRKIEIVRKKPIFKKATVT; listed as Homo sapiens) [LRP24] |  | 6 ± 3 | 44 ± 10 | show antibacterial activity in vitro | 15 ± 3 | 10 ± 4 | 13 ± 3 | 4 ± 4 | 33 ± 11 | 
KRKKKGKGWGKKRDPCLRKY [KRK20: D] | 2.56 |  |  |  |  |  |  |  |  | 
LKIKTKKVNTADQCANRCTRNKGL (listed as Homo sapiens) [LKI24] |  | 2 ± 2 | 25 ± 4 |  | 14 ± 4 | 9 ± 3 | 13 ± 3 | 6 ± 3 | 54 ± 4 | 
PKRKKKGGKNGKNRRNRKKKN (listed as Homo sapiens) [PKR21] |  |  | 13 ± 8 | shows antibacterial activity in vitro | 9 ± 4 | 9 ± 3 | 10 ± 2 | 6 ± 1 | 38 ± 3 | 
